Data reported in patent US6492422B2, “Tricyclic sulfonamides and their derivatives as inhibitors of matrix metalloproteinases” (Warner-Lambert Company, priority 1998, dated 2002).

Legend:
[1] = molecular target: T1, MMP-1FL (collagenase-1 full length enzyme) (Homo sapiens, UniProt P03956); experiment: MMP inhibition, thiopeptolide substrate, MMP-1FL; format: biochemical; conditions: thiopeptolide substrate Ac-Pro-Leu-Gly-thioester-Leu-Leu-Gly-OEt
T1 construct: MMP-IFL (collagenase-1 full length enzyme)
T1 sequence (P03956 100-469): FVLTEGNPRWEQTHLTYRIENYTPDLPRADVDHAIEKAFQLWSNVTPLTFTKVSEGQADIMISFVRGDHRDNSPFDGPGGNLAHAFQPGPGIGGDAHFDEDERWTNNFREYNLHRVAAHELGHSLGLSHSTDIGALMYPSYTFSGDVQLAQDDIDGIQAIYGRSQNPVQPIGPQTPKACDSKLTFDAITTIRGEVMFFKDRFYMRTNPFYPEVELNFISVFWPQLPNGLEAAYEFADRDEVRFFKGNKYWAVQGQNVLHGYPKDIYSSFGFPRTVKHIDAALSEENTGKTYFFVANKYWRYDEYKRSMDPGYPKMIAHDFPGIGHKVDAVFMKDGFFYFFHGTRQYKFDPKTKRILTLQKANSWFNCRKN
Protocol: (§1) Experiments were carried out with the full-length and catalytic domains of the proteinases. […] IC50 values were determined using a thiopeptolide substrate, Ac-Pro-Leu-Gly-thioester-Leu-Leu-Gly-OEt (Ye Q.-Z., Johnson L. L., Hupe D. J., and Baragi V., “Purification and Characterization of the Human Stromelysin Catalytic Domain Expressed in Escherichia coli,” Biochemistry, 1992;31:11231-11235; Ye Q.-Z., Johnson L. L., Yu A. E., and Hupe D., “Reconstructed 19 kDa catalytic domain of gelatinase A is an active proteinase,” i Biochemistry, 1995;34:47024708.) MMP-13CD was expressed from a synthetic gene and purified from Escherichia coli cell culture according to a previously described method (Ye Q.-Z., Johnson L. L., and Baragi V., “Gene synthesis and expression in E. coli for PUMP, a human matrix metalloproteinase,” Biochemical and Biophysical Research Communications, 1992;186:143-149).

[2] = molecular target: MMP-2CD (gelatinase A catalytic domain) (Homo sapiens, UniProt P08253); experiment: MMP inhibition, thiopeptolide substrate, MMP-2CD; format: biochemical; conditions: thiopeptolide substrate Ac-Pro-Leu-Gly-thioester-Leu-Leu-Gly-OEt
Protocol: as §1

[3] = molecular target: T2, MMP-2FL (gelatinase A full length enzyme) (Homo sapiens, UniProt P08253); experiment: MMP inhibition, thiopeptolide substrate, MMP-2FL; format: biochemical; conditions: thiopeptolide substrate Ac-Pro-Leu-Gly-thioester-Leu-Leu-Gly-OEt
T2 construct: Experiments were carried out with the full-length and catalytic domains of the proteinases
T2 sequence (P08253 110-660): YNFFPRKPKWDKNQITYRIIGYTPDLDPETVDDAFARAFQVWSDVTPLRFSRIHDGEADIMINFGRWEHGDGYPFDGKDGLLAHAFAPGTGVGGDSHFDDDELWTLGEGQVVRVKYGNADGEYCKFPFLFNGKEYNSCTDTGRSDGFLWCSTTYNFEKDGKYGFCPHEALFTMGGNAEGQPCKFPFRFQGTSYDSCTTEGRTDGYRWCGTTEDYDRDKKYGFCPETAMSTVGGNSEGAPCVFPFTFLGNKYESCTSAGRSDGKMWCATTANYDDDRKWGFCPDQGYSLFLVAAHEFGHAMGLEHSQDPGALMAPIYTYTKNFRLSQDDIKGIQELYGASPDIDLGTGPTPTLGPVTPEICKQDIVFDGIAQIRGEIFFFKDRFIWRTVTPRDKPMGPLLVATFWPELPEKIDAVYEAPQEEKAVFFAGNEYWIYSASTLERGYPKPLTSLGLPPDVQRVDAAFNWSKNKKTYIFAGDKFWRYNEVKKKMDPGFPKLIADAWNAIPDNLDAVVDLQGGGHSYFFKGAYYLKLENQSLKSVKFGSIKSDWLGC
Protocol: as §1

[4] = molecular target: T3, MMP-3CD (stromelysin-1 catalytic domain) (Homo sapiens, UniProt P08254); experiment: MMP inhibition, thiopeptolide substrate, MMP-3CD; format: biochemical; conditions: thiopeptolide substrate Ac-Pro-Leu-Gly-thioester-Leu-Leu-Gly-OEt
T3 construct: MMP-3CD (stromelysin-1 catalytic domain)
Protocol: as §1

[5] = molecular target: T4, MMP-7FL (matrilysin full length enzyme) (Homo sapiens, UniProt P09237); experiment: MMP inhibition, thiopeptolide substrate, MMP-7FL; format: biochemical; conditions: thiopeptolide substrate Ac-Pro-Leu-Gly-thioester-Leu-Leu-Gly-OEt
T4 construct: MMP-7FL (matrilysin full length enzyme)
T4 sequence (P09237 95-267): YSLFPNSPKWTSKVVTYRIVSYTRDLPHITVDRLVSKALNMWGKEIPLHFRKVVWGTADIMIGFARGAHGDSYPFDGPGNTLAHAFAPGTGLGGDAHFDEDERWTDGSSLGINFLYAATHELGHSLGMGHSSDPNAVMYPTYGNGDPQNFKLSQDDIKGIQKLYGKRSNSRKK
Protocol: as §1

[6] = molecular target: T5, MMP-9FL (gelatinase B full length enzyme) (Homo sapiens, UniProt P14780); experiment: MMP inhibition, thiopeptolide substrate, MMP-9FL; format: biochemical; conditions: thiopeptolide substrate Ac-Pro-Leu-Gly-thioester-Leu-Leu-Gly-OEt
T5 construct: MMP-9-FL (gelatinase B full length enzyme)
Protocol: as §1

[7] = molecular target: T6, MMP-13CD (collagenase-3 catalytic domain) (Homo sapiens, UniProt P45452); experiment: MMP inhibition, thiopeptolide substrate, MMP-13CD; format: biochemical; conditions: thiopeptolide substrate Ac-Pro-Leu-Gly-thioester-Leu-Leu-Gly-OEt; catalytic domain expressed in Escherichia coli
T6 construct: MMP-13CD (collagenase-3 catalytic domain); made in house; host or cells: Escherichia coli
Protocol: as §1

[8] = molecular target: MMP-14CD (membrane-type MMP-1) (Homo sapiens, UniProt P50281); experiment: MMP inhibition, thiopeptolide substrate, MMP-14CD; format: biochemical; conditions: thiopeptolide substrate Ac-Pro-Leu-Gly-thioester-Leu-Leu-Gly-OEt; catalytic domain
Protocol: as §1

T3 sequence (P08254 100-272 limits assumed): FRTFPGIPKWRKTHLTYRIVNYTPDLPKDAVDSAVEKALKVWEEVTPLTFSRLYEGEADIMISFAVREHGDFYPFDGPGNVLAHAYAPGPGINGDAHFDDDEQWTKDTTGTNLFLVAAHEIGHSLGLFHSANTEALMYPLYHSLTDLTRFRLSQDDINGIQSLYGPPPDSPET
MMP-2CD (gelatinase A catalytic domain), sequence (P08253 with tags, fused parts or gaps DEL222-396): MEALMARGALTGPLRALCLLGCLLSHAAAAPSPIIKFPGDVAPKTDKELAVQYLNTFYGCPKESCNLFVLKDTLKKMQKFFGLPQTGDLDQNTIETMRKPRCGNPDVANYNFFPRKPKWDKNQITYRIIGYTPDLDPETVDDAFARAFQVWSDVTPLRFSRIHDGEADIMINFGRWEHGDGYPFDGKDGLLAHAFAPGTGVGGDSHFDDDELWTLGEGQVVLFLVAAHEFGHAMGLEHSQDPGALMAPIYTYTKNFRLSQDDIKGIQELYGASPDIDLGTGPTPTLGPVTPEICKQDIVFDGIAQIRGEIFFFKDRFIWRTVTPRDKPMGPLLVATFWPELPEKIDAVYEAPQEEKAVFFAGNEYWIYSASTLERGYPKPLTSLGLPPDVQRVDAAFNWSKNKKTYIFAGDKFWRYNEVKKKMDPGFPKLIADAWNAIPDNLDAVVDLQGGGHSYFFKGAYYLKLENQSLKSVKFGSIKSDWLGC
T5 sequence (P14780 94-707): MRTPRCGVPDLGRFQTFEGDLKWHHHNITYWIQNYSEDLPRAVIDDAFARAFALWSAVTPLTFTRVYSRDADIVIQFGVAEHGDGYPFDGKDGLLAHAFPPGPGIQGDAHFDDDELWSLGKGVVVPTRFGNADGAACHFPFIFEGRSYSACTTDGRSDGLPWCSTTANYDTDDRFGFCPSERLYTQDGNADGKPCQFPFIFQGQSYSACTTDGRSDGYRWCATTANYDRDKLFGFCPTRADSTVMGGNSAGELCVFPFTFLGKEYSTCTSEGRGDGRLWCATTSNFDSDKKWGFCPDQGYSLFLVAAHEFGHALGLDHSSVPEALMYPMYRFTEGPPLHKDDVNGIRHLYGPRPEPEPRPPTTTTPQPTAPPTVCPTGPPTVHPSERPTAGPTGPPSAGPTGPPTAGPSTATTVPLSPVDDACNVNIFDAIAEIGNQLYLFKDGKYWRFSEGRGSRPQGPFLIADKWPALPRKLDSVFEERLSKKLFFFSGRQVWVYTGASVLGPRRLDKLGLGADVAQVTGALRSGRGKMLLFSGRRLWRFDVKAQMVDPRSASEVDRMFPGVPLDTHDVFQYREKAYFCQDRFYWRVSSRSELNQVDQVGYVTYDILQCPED

IC50 [1] [µM] | IC50 [2] [µM] | IC50 [3] [µM] | IC50 [4] [µM] | IC50 [5] [µM] | IC50 [6] [µM] | IC50 [7] [µM] | IC50 [8] [µM] | melting point [°C] | SMILES
6.7 | 0.037 | 0.335 | 0.046 | 82 | 30 | 3.45 | 0.38 | – | CC(C)[C@@H](NS(=O)(=O)c1ccc2c3c(oc2c1)CCCC3)C(=O)O [Example 1, (R) 3-Methyl-2-(6,7,8,9-tetrahydro-dibenzofuran-3-sulfonylamino)-butyric Acid]
16 | 0.0167 | 0.45 | 0.0056 | 3.2 | 100 | 0.97 | 0.048 | 176 to 179 | O=C(O)C[C@H](NS(=O)(=O)c1ccc2c3c(oc2c1)CCCC3)C(=O)O [Example 3, (S) 2-(6,7,8,9-Tetrahydro-dibenzofuran-3-sulfonylamino)-succinic Acid]
25 | 0.018 | 0.15 | 0.0215 | 2.3 | 28 | 1.34 | 0.064 | 167 to 169 | O=C(O)[C@H](CCc1ccccc1)NS(=O)(=O)c1ccc2c3c(oc2c1)CCCC3 [Example 4, (S) 4-Phenyl-2-(6,7,8,9-tetrahydro-dibenzofuran-3-sulfonylamino)-butyric Acid]
6.05 | 0.034 | 0.43 | 0.0245 | 7.5 | 100 | 2.3 | 0.155 | 162 to 165 | CC(C)[C@H](NS(=O)(=O)c1ccc2c3c(oc2c1)CCCC3)C(=O)O [Example 2, (S) 3-Methyl-2-(6,7,8,9-tetrahydro-dibenzofuran-3-sulfonylamino)-butyric Acid]
